Experimental data from patent publication US6897319B2, “Useful aroyl pyrrole heteroaryl methanones and methanols” (Ortho-McNeil Pharmaceutical, Inc., priority 2001, dated 2005).
Marks after values point to notes of the source that are not given here.

Key:
[1] = tested on: voltage-gated sodium channels; assay: Fluorometric membrane potential assay in SK-N-SH cells (veratridine stimulus, FLIPR); type: cell-based; conditions: 10 μM compound, 5 μM veratridine
Method: Screening Assay for Voltage-Gated Sodium Channel Antagonists Fluorometric Membrane Potential Assay
(§1) SK-N-SH neuroblastoma cells were maintained in a propagation medium containing modified Eagle's medium and 10% (v/v) fetal bovine serum and were incubated at 37° C. in a 5% CO2 atmosphere. Only cells with fewer than 20 passages were used in each assay. All drugs were prepared in DMSO, and the final concentration of solvent was less than 0.1% (v/v). Veratridine, a toxin that selectively promotes persistent activation of voltage-gated sodium channels, served as the stimulus. 24 hr prior to testing, 1×10^5 cells/well were plated into 96-well plates specifically designed for use in a fluorescent imaging plate reader (FLIPR) (Molecular Devices, Sunnyvale, Calif.)
Prior to screening, monolayers of cells were loaded with 100 μL/well of a proprietary voltage-sensitive dye (Molecular Devices, Sunnyvale, Calif.) for 30 min at 37° C. After this incubation period, the cells were stimulated with 5 μM veratridine in the presence or absence of investigational compounds (prepared at a final concentration of 10 μM in DMSO). A sample containing 5 μM veratridine and 10 μM tetrodotoxin accounted for nonspecific activity. The fluorescence was monitored by the FLIPR (Molecular Devices) from 10 sec prior to drug addition (50 μL) to 170 sec after drug addition at 25° C. During sodium channel activation, the cells depolarize and the dye associates with cell membranes, resulting in increased fluorescence.

[2] = tested on: mechanical allodynia after L5 spinal nerve ligation; assay: Chung Model (spinal nerve ligation) antiallodynic effect; type: in vivo; conditions: rat; for % MPE in the Chung Model: oral, screening dose (not given)
Excerpt: Procedure for Testing Antiallodynic Effect
The procedure used to detect the antiallodynic effect of a compound of the present invention for which there is a good correlation with human efficacy for the treatment of pain is the procedure for the measurement of allodynia found in the Chung Model (Kim S. H. and Chung J. M., An Experimental Model for Peripheral Neuropathy Produced by Segmental Spinal Nerve Ligation in the Rat, Pain, 1992, 50, 355-363). The antiallodynic effect of the composition of the present invention in the Chung Model is expressed in % MPE (Maximum Possible Effect).
Male Sprague-Dawley rats, weighing approximately 200 g each were anesthetized with isoflurane. The spinal nerve at the level of L5 was exposed through an incision just left of the dorsal midline and tightly ligated with 6-0 silk. At various times after surgery, animals were tested for mechanical allodynia with von Frey hairs (monofilaments which are calibrated to bend under a certain amount of pressure, ranging from 0.41 to 15.1 g). In order to calculate a paw withdrawal threshold (PWT), tactile allodynia was measured by recording the pressure at which the affected paw was withdrawn from graded stimuli according to the procedure of S. R. Chaplan, J. W. Pogrel, T. L. Yaksh, Role of Voltage-Dependent Calcium Channel Subtypes in Experimental Tactile Allodynia, J. Pharmacol. Exp. Ther., 1994, 269, 1117-1123. Normal rats can withstand at least 15 g of pressure without responding. Operated rats, however, can respond to as little as 0.25 g of pressure. The surgery was deemed successful if the animal responded with a PWT of less than 4 g of pressure applied to the affected paw. […] The PWT was used to calculate the % maximal possible effect (% MPE) according to the formula: %MPE=100×[(PWT−CT)/(CO−CT)]; wherein PWT is defined as Paw Withdrawal Threshold, CT is Control Threshold, and CO is Cut Off (defined as 15 g).
The sham operation consisted of a similar surgery; the spinal nerve was visualized without being ligated.
Compounds selected from Formula (I) and Formula (II) were tested for activity in treating or modulating neuropathic pain by being dissolved or suspended in either water or hydroxypropyl methylcellulose, respectively. Postoperative animals between 14 to 42 days were fasted overnight prior to dosing. Animals were orally dosed and dosage volumes were calculated on a 4 mL/kg basis.

[3] = tested on: maximal electroshock extensor seizure; assay: Mouse maximal electroshock test (MES) anticonvulsant model; type: in vivo; conditions: oral
Method: Procedure for Testing in Mouse Anticonvulsant Model
The activity of the present compounds as anticonvulsant agents was determined using a standard mouse “maximal electroshock test” (MES). In this test, activity was indicated by a block of the […] extensor seizure, as described by Swinyard, et al. (J. Pharmacol. Exptl. Therap., 1952, 106, 319). A more recent description of current anticonvulsant drug screening is given in Swinyard, et al., in Epilepsia, 1978, 19, 409.
The anticonvulsant activity of the instant compounds is shown in Table 5 and was evaluated according to the Swinyard (1952) method. The abbreviations used in the table have the following meanings: mpk refers to the dose orally administered in “mg per Kg;” and, ED50 refers to the “50% Effective Dose” orally administered in mpk. The values marked by an * represent the number of mice protected/number of mice tested; therefore, a value of 3/3 represents that the number of mice protected matched the number of mice tested at the indicated dose.

[4] = tested on: voltage-gated sodium channels; assay: [14C]guanidinium flux assay in SK-N-SH cells (veratridine stimulus); type: cell-based; conditions: 10 μM compound, 100 μM veratridine
Method: Screening Assay for Voltage-Gated Sodium Channel Antagonists [^14C] Guanidinium Flux Assay
as §1, with “stimulus.” for “stimulus. 24 hr prior to testing, 1×10^5 cells/well were plated into 96-well plates specifically designed for use in a fluorescent imaging plate reader (FLIPR) (Molecular Devices, Sunnyvale, Calif.)”
SK-N-SH cells were plated at 1×10^5 cells/well in 96-well Cytostar-T microscintillating plates in propagation medium and experiments were performed 6-7 days after plating. Prior to assay, the SK-N-SH cells were washed twice with assay buffer containing 50 mM HEPES (pH 7.45), 5.4 mM potassium chloride, 0.8 mM magnesium chloride, 130 mM choline chloride, 5.5 mM glucose and 0.1 mg/mL bovine serum albumin. Next, the plates were allowed to equilibrate for 10 min at 37° C. in assay buffer. After this incubation period, the cells were stimulated with 100 μM veratridine in the presence or absence of investigational compounds prepared in a 96-well plate (prepared at a final concentration of 10 μM in DMSO). The 96-well dosing plate was prepared by mixing 25 μL of a drug/assay buffer solution per well with 25 μL of 0.7 μCi/mL [^14C]guanidine hydrochloride in assay buffer. 50 μL aliquots from the dosing plate were then added to the cells. One sample containing 100 μM veratridine and 10 μM tetrodotoxin accounted for nonspecific activity. The plates were incubated for 1 hr at room temperature and the radioactivity was counted in a 1450 Microbeta scintillation counter.

Structure (SMILES) | % FI at 10 μM (% fluorescence inhibition) [1] [%] | % MPE in the Chung Model [2] [%] | MES Response, number of mice protected/number of mice tested ([3]; @ 100 mpk) | MES Response, number of mice protected/number of mice tested ([3]; @ 300 mpk) | % GFI at 10 μM (% guanidinium flux inhibition) [4] [%] | MES Response, number of mice protected/number of mice tested ([3]; @ 30 mpk) | ED50 ([2]; po, orally administered) [mg/kg] | ED50 in the Chung Model ([2]; orally administered)
Cn1cc(C(=O)c2ccncc2)cc1C(=O)c1ccccc1 [Cpd 2, (5-Benzoyl-1-methyl-1H-pyrrol-3-yl)pyridin-4-ylmethanone] | 76 | 7 | – | – | – | – | – | –
Cc1ccc(C(=O)c2cc(C(=O)c3ccncc3)cn2C)cc1.Cl [Cpd 3, [1-Methyl-5-(4-methylbenzoyl)-1H-pyrrol-3-yl]pyridin-4-ylmethanone Hydrochloride] | 45 | 5 | 3/3* @ 100 mpk | – | – | – | – | –
Cl.Cn1cc(C(=O)c2ccncc2)cc1C(=O)c1cccs1 [Cpd 4, [1-Methyl-5-(thiophene-2-carbonyl)-1H-pyrrol-3-yl]pyridin-4-ylmethanone hydrochloride] | 49 | – | – | 0/1* @ 300 mpk | – | – | – | –
Cl.Cn1cc(C(=O)c2cccnc2)cc1C(=O)c1ccc(Cl)cc1.Cn1cc(C(=O)c2cccnc2)cc1C(=O)c1ccc(Cl)cc1.O [Cpd 5, [5-(4-Chlorobenzoyl)-1-methyl-1H-pyrrol-3-yl]pyridin-3-ylmethanone hydrochoride hydrate [2:1:1]] | 26 | 9 | – | – | 55 | – | – | –
Cn1cc(C(=O)c2ccccn2)cc1C(=O)c1ccc(Cl)cc1 [Cpd 6, [5-(4-Chlorobenzoyl)-1-methyl-1H-pyrrol-3-yl]pyridin-2-yl-methanone] | 25 | 12 | – | – | 74 | 1/1* @ 30 mpk | – | –
Cl.Cn1cc(C(=O)c2ccc(F)cc2)cc1C(=O)c1cccnc1 [Cpd 7, (4-Fluorophenyl)-[1-methyl-5-(pyridine-3-carbonyl)-1H-pyrrol-3-yl]methanone Hydrochloride] | 45 | – | 2/3* @ 100 mpk | – | 57 | – | 22 | –
Cn1cc(C(=O)c2ccc3ccccc3c2)cc1C(=O)c1cccnc1 [Cpd 8, [1-Methyl-5-(pyridine-3-carbonyl)-1H-pyrrol-3-yl]naphthalen-2-yl-methanone] | 67 | 1.3 | – | 0/1* @ 300 mpk | 82 | – | – | –
Cn1cc(C(=O)c2ccc(Cl)cc2)cc1C(=O)c1ccc(Cl)nc1 [Cpd 9, (4-Chlorophenyl)-[5-(6-chloropyridine-3-carbonyl)-1-methyl-1H-pyrrol-3-yl]methanone] | 26 | 5 | – | – | 31 | – | – | –
Cn1cc(C(=O)c2ccc(F)cc2)cc1C(=O)c1ccccn1 [Cpd 10, (4-Fluorophenyl)-[1-methyl-5-(pyridine-2-carbonyl)-1H-pyrrol-3-yl]methanone] | 60 | 11 | – | 0/1* @ 300 mpk | 46 | – | – | –
Cn1cc(C(=O)c2ccc(F)cc2)cc1C(=O)c1ccncc1 [Cpd 11, (4-Fluorophenyl)-[1-methyl-5-(pyridine-4-carbonyl)-1H-pyrrol-3-yl]methanone] | 39 | 10 | – | 0/1* @ 300 mpk | – | – | – | –
Cn1cc(C(O)c2ccncc2)cc1C(=O)c1ccc(Cl)cc1 (stereo not drawn) [Cpd 12, (4-Chlorophenyl)-[4-(hydroxypyridin-4-yl-methyl)-1-methyl-1H-pyrrol-2-yl]-methanone] | 60 | 3.7 | – | – | – | – | – | –
Cn1cc(C(=O)c2cnc[nH]2)cc1C(=O)c1ccc(Cl)cc1 [Cpd 13, (4-Chlorophenyl)-[4-(3H-imidazole-4-carbonyl)-1-methyl-1H-pyrrol-2-yl]methanone] | 62 | – | – | – | 24 | – | – | –
Cn1cc(C(=O)c2cc[n+](C)cc2)cc1C(=O)c1ccc(Cl)cc1.O.O=S(=O)([O-])C(F)(F)F [Cpd 14, 4-[[5-(4-Chlorobenzoyl)-1-methyl-1H-pyrrol-3-yl]carbonyl]-1-methylpyridinium trifluoromethanesulfonate hydrate [5:1]] | 54 | – | – | – | 14 | – | – | –
Cn1cc(C(=O)c2cc[n+]([O-])cc2)cc1C(=O)c1ccc(Cl)cc1 [Cpd 15, (4-Chlorophenyl)-[1-methyl-4-(1-oxypyridine-4-carbonyl)-1H-pyrrol-2-yl]methanone] | 40 | 7.9 | – | – | 4 | – | – | –
Cn1cc(C(O)c2cc[n+]([O-])cc2)cc1C(=O)c1ccc(Cl)cc1 (stereo not drawn) [Cpd 16, (4-Chlorophenyl)-{4-[hydroxy-(1-oxy-pyridin-4-yl)methyl]-1-methyl-1H-pyrrol-2-yl}methanone] | 29 | – | – | – | – | – | – | ED50 = 29 mpk
Cc1c(C(=O)c2ccc(F)cc2)c(C)n(C)c1C(=O)c1cccnc1 [Cpd 17, (4-Fluorophenyl)-[1,2,4-trimethyl-5-(pyridine-3-carbonyl)-1H-pyrrol-3-yl]methanone] | 15 | 59 | – | – | – | – | – | –
